This is an account of results in patent publication US20030162777A1, “Novel N-acylated heterocycles” (Recordati S.A., priority 2001, published 2003).

The target in the experiment is T1, human 5HT1A-serotonergic receptor (Homo sapiens, UniProt P08908).
T1 construct: expressed in transfected cells; host or cells: HeLa (human cell line), stably transfected; cell membranes used
T1 sequence (P08908 1-422): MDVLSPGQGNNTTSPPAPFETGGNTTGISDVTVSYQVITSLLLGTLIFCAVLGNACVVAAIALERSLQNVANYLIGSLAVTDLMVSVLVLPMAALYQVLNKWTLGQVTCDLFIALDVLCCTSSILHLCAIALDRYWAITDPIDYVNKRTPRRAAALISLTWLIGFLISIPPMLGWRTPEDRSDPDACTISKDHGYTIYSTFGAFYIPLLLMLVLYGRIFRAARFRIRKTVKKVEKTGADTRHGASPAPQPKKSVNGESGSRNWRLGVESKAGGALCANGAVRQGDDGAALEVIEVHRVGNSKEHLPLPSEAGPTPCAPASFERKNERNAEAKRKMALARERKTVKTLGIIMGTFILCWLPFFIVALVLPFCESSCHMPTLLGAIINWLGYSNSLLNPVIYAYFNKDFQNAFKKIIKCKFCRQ
The experiment in a line: Radioligand binding to recombinant 5-HT1A receptors. The following applies: [3H]8-OH-DPAT 1 nM, membranes of HeLa cells with human 5-HT1A receptor; Ki from IC50 by Cheng & Prusoff; read-out: Binding affinity for 5HT1A receptors, Ki. A digest of the protocol:
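Displacement of 1 nM [3H]8-OH-DPAT (30 min, 30 °C, Tris-HCl pH 7.4 with MgCl2 and pargyline) from recombinant human 5-HT1A in transfected HeLa membranes, stopped by filtration. Specific binding defined against 10 μM 5-HT; IC50 by nonlinear fitting, then Ki by Cheng–Prusoff.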
What is called Ki is a dissociation constant, usually derived from enzyme kinetics or from competition with a known ligand. For `Cc1oc(S(=O)(=O)N2CCCCC2)cc1C(=O)N1c2ccccc2CCC1CN1CCN(c2cccc3[nH]ccc23)CC1` (stereo not shown) [Example 68A55, 1-(4-Indolyl)-4-[1-(2-methyl-5-piperidin-1-ylsulfonylfuran-3-carbonyl)-1,2,3,4-tetrahydroquinoline-2-ylmethyl]piperazine], the Ki stood at 14.3 nM.

For the molecule `O=C(C1CCCCC1)N1c2ccccc2CCC1CN1CCC(c2ccccc2F)CC1` (stereo not shown) [Example 72A40, 1-(1-Cyclohexanecarbonyl-1,2,3,4-tetrahydroquinolin-2-!ylmethyl)-4-(2-fluorophenyl)piperidine], the Ki amounted to 19.8 nM.

On to `CC(C)OCCC(=O)N1c2ccccc2CCC1CN1CCN(c2cccc3[nH]ccc23)CC1` (stereo not shown) [Example 12, 1-[1-(3-Isopropoxypropionyl)-1,2,3,4-tetrahydroquinoline-2-ylmethyl]-4-(4-indolyl)piperazine], for which the inhibition constant Ki amounted to 47.5 nM.

`CC(C)(C)OC(=O)n1cc(CC(=O)N2c3ccccc3CCC2CN2CCN(c3cccc4[nH]ccc34)CC2)c2ccccc21` (stereo not shown) [Example 71A2, 1-[1-[2-(1-tert-Butoxycarbonylindol-3-yl)acetyl]-1,2,3,4-tetrahydroquinoline-2-ylmethyl]-4-(4-indolyl]piperazine]: the Ki was determined as 92 nM.

As for `O=C(c1ccccc1)N1c2ccccc2CCC1CN1CCN(c2cccc3[nH]ccc23)CC1` (stereo not shown) [Example 24A4, 1-(1-Benzoyl-1,2,3,4-tetrahydroquinoline-2-ylmethyl)-4-(4-indolyl)piperazine], the Ki was found to be 9.3 nM.

As to `O=S(=O)(c1ccccc1)N1c2ccccc2CCC1CN1CCN(c2cccc3c2OCCO3)CC1` (stereo not shown) [Example 76A10, 1-(1-Benzenesulphonyl-1,2,3,4-tetrahydroquinolin-2-ylmethyl)-4-(2,3-dihydrobenzo[1,4]dioxin-5-yl)piperazine], the Ki was determined as 21.5 nM.

As for `O=C(CCOc1ccccc1)N1c2ccccc2CCC1CN1CCN(c2cccc3[nH]ccc23)CC1` (stereo not shown) [Example 68A61, 1-(4-Indolyl)-4-[1-(3-phenoxypropionyl)-1,2,3,4-tetrahydroquinoline-2-ylmethyl]piperazine], the Ki turned out to be 19.7 nM.

Regarding `CCOc1ccc(C(=O)N2c3ccccc3CCC2CN2CCN(c3cccc4[nH]ccc34)CC2)cc1` (stereo not shown) [Example 68A69, 1-[1-(4-Ethoxybenzoyl)-1,2,3,4-tetrahydroquinoline-2-ylmethyl]-4-(4-indolyl)piperazine], the inhibition constant (Ki) came to 4.2 nM.

`O=C(C1CCCCC1)N1c2ccccc2CCC1CN1CCN(c2ccnc3ccccc23)CC1` (stereo not shown) [Example 72A94, 1-(1-Cyclohexanecarbonyl-1,2,3,4-tetrahydroquinolin-2-ylmethyl)-4-(4-quinolyl)piperazine]: the inhibition constant Ki is 10 nM.

Take `Cc1cccc(NC(=O)N2c3ccccc3CCC2CN2CCN(c3cccc4[nH]ccc34)CC2)c1` (stereo not shown) [Example 69A1, 1-(4-Indolyl)-4-[1-(3-methylphenylaminocarbonyl)-1,2,3,4-tetrahydroquinoline-2-ylmethyl]piperazine]: the Ki amounted to 17.5 nM.

With `Cn1ccc2c(N3CCN(C[C@H]4CCc5ccccc5N4C(=O)C4CCCCC4)CC3)cccc21` [Example 43, (R)-1-(1-Cyclohexanecarbonyl-1,2,3,4-tetrahydroquinoline-2-ylmethyl)-4-(1-methyl-4-indolyl)piperazine], the Ki was 5 nM.

As to `COc1cc(F)ccc1N1CCN(CC2CCc3cc(C)ccc3N2C(=O)C2CCCCC2)CC1` (stereo not shown) [Example 53, 1-(1-Cyclohexanecarbonyl-6-methyl-1,2,3,4-tetrahydroquinoline-2-ylmethyl)-4-(4-fluoro-2-methoxyphenyl)piperazine], the Ki was 24.2 nM.

In the case of `O=C(c1ccccc1Cl)N1c2ccccc2CCC1CN1CCN(c2cccc3[nH]ccc23)CC1` (stereo not shown) [Example 68A4, 1-[1-(2-Chlorobenzoyl)-1,2,3,4-tetrahydroquinoline-2-ylmethyl]-4-(4-indolyl)piperazine], the Ki was 4.7 nM.

For the molecule `Cc1ccccc1NC(=O)N1c2ccccc2CCC1CN1CCN(c2cccc3c2OCCO3)CC1` (stereo not shown) [Example 76A12, 1-(2,3-Dihydrobenzo[1,4]dioxin-5-yl)-4-[1-(2-methylphenylaminocarbonyl)-1,2,3,4-tetrahydroquinolin-2-ylmethyl]piperazine], the Ki was found to be 8 nM.

With `Cc1ccccc1C1CCN(CC2CCc3ccccc3N2C(=O)C2CCCCC2)CC1` (stereo not shown) [Example 72A56, 1-(1-Cyclohexanecarbonyl-1,2,3,4-tetrahydroquinolin-2-ylmethyl)-4-(2-methylphenyl)piperidine], the Ki was found to be 10.1 nM.

With `O=C(NCc1ccccc1)N1c2ccccc2CCC1CN1CCN(c2cccc3[nH]ccc23)CC1` (stereo not shown) [Example 69A9, 1-(1-Benzylaminocarbonyl-1,2,3,4-tetrahydroquinoline-2-ylmethyl)-4-(4-indolyl)piperazine], the Ki came out at 25.5 nM.

In the case of `O=C(N1CCOCC1)N1c2ccccc2CCC1CN1CCN(c2cccc3[nH]ccc23)CC1` (stereo not shown) [Example 14, 1-[1-(4-Morpholinocarbonyl)-1,2,3,4-tetrahydroquinoline-2-ylmethyl]-4-(4-indolyl)piperazine], the Ki was determined as 82 nM.

In the case of `N#CNCCC(=O)N1c2ccccc2CCC1CN1CCN(c2cccc3[nH]ccc23)CC1` (stereo not shown) [Example 54, 1-[1-(3-Cyanominopropionyl)-1,2,3,4-tetrahydroquinoline-2-ylmethyl]-4-(4-indolyl)piperazine], the Ki was 51 nM.

Take `COc1cccc(N2CCN(CC3CCc4ccccc4N3C(=O)C3CCCCC3)CC2)c1` (stereo not shown) [Example 72A25, 1-(1-Cyclohexanecarbonyl-1,2,3,4-tetrahydroquinolin-2-ylmethyl)-4-(3-methoxyphenyl)piperazine]: the Ki came to 15.3 nM.

As to `O=C1CC[C@H](C(=O)N2c3ccccc3CCC2CN2CCN(c3cccc4[nH]ccc34)CC2)N1` (stereo partly drawn) [Example 68A73, 1-(4-Indolyl)-4-[1-[(2R)-5-oxopyrrolidine-2-ylcarbonyl]-1,2,3,4-tetrahydroquinoline-2-ylmethyl]piperazine], the Ki was 17.9 nM.

In the case of `CC(C)(C)NC(=O)N1c2ccccc2CCC1CN1CCN(c2nccc3ccccc23)CC1` (stereo not shown) [Example 75A15, 1-(1-Isoquinolinyl)-4-[1-(1,1-Dimethyethylaminocarbonyl)-1,2,3,4-tetrahydroquinolin-2-ylmethyl]piperazine], the Ki came to 27.7 nM.

`O=C(CCOCc1ccccc1)N1c2ccccc2CCC1CN1CCN(c2cccc3[nH]ccc23)CC1` (stereo not shown) [Example 9, 1-[1-(3-Benzyloxypropionyl)-1,2,3,4-tetrahydroquinoline-2-ylmethyl]-4-(4-indolyl)piperazine]: the Ki is 9.6 nM.

For `COc1cc(F)ccc1N1CCN(CC2CCc3c(Cl)cccc3N2C(=O)C2CCCCC2)CC1` (stereo not shown) [Example 55, 1-(5-Chloro-1-cyclohexanecarbonyl-1,2,3,4-tetrahydroquinoline-2-ylmethyl)-4-(4-fluoro-2-methoxyphenyl)piperazine], the Ki was 2.4 nM.

As to `CC(C)C(=O)N1c2ccccc2CCC1CN1CCN(c2cccc3[nH]ccc23)CC1` (stereo not shown) [Example 68A9, 1-(4-Indolyl)-4-[1-(2-methylpropionyl)-1,2,3,4-tetrahydroquinoline-2-ylmethyl]piperazine], the Ki was 24.6 nM.

With `O=C(C1CCCCC1)N1c2ccccc2CCC1CN1CCN(c2ccc(Cl)cc2Cl)CC1` (stereo not shown) [Example 35A9, 1-(1-Cyclohexanecarbonyl-1,2,3,4-tetrahydroquinoline-2-ylmethyl)-4-(2,4-dichlorophenyl)piperazine], the Ki came out at 39.6 nM.

With `O=C(C1CCC(O)CC1)N1c2ccccc2CCC1CN1CCN(c2cccc3[nH]ccc23)CC1` (stereo not shown) [Example 44, (Z)-1-[1-(4-Hydroxycyclohexanecarbonyl)-1,2,3,4-tetrahydroquinoline-2-ylmethyl]-4-(4-indolyl)piperazine], the inhibitory constant (Ki) was found to be 30 nM.

Regarding `Cn1cc(C(=O)N2c3ccccc3CCC2CN2CCN(c3cccc4[nH]ccc34)CC2)c2ccccc21` (stereo not shown) [Example 68A47, 1-(4-Indolyl)-4-[1-(1-methyl-3-indolylcarbonyl)-1,2,3,4-tetrahydroquinoline-2-ylmethyl]piperazine], the inhibition constant Ki was determined as 17.1 nM.

Consider `O=S(=O)(Cc1ccccc1)N1c2ccccc2CCC1CN1CCN(c2cccc3[nH]ccc23)CC1` (stereo not shown) [Example 70A6, 1-(4-Indolyl)-4-(1-phenylmethylsulphonyl-1,2,3,4-tetrahydroquinoline-2-ylmethyl)piperazine], for which the Ki was determined as 4.7 nM.

As for `O=C(C1CCCCC1)N1c2ccccc2CCC1CN1CCN(c2cccc3nonc23)CC1` (stereo not shown) [Example 60A8, 1-[4-(2,1,3-Benzoxadiazolyl)]-4-(1-cyclohexanecarbonyl-1,2,3,4-tetrahydroquinoline-2-ylmethyl)piperazine], the Ki was found to be 12.2 nM.

Turning to `Cc1ccc(S(=O)(=O)n2ccc(C(=O)N3c4ccccc4CCC3CN3CCN(c4cccc5[nH]ccc45)CC3)c2)cc1` (stereo not shown) [Example 68A57, 1-(4-Indolyl)-4-[1-[1-(4-methylphenylsulphonyl)pyrrole-3-carbonyl]-1,2,3,4-tetrahydroquinoline-2-ylmethyl]piperazine], the inhibition constant (Ki) amounted to 33 nM.

`Cc1ccc2c(c1)CCC(CN1CCN(c3cccc4[nH]ccc34)CC1)N2C(=O)C1CCCCC1` (stereo not shown) [Example 32, 1-(1-Cyclohexanecarbonyl-6-methyl-1,2,3,4-tetrahydroquinoline-2-ylmethyl)-4-(4-indolyl)piperazine]: the Ki was 2.8 nM.
